Assay [1] addresses human norepinephrine transporter (NET) (Homo sapiens (Human), UniProt P23975). Briefly: Binding assay to human norepinephrine transporter (NET) ([3H]-Nisoxetin). To be noted: Table 2, dual compounds; [3H]-Nisoxetin binding. Here is the method: Binding Assay to Human Norepinephrine Transporter (NET).
Human norepinephrine transporter (NET) enriched membranes (5 μg) were incubated with 5 nM of radiolabeled [3H]-Nisoxetin in assay buffer containing 50 mM Tris-HCl, 120 mM NaCl, 5 mM KCl, pH 7.4.
NSB (non specific binding) was measured by adding 1 μM. After 60 min incubation at 4° C., binding reaction was terminated by filtering through Multiscreen GF/C (Millipore) presoaked in 0.5% polyethyleneimine in Vacuum Manifold Station, followed by 3 washes with ice-cold filtration buffer containing 50 mM Tris-HCl, 0.9% NaCl, pH 7.4.
Filter plates were dried at 60° C. for 1 hour and 30 μl of scintillation cocktail were added to each well before radioactivity reading.

Assay [2] concerns the target human α2δ-1 subunit of Cav2.2 calcium channel (Homo sapiens (Human), UniProt P54289). Briefly: Binding assay to human α2δ-1 subunit of Cav2.2 calcium channel ([3H]-Gabapentin). The conditions noted are these: read-out: Ki (nM) α2δ-1. The essentials:
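Radioactivity on dried GF/C filters quantified by scintillation after filtration and three cold Tris-HCl (pH 7.4) washes. Incubation ran 60 min at 27° C with [3H]-gabapentin; 10 μM pregabalin gave nonspecific binding.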

Setting [3] is: Table 2, dual compounds, [3H]-Gabapentin binding.
Where [4] appears, read: binding to α2δ-1, [3H]-Gabapentin.

Like-named read-outs stand apart in the source and are kept apart here.

Chain of human α2δ-1 subunit of Cav2.2 calcium channel (P54289 25-1103): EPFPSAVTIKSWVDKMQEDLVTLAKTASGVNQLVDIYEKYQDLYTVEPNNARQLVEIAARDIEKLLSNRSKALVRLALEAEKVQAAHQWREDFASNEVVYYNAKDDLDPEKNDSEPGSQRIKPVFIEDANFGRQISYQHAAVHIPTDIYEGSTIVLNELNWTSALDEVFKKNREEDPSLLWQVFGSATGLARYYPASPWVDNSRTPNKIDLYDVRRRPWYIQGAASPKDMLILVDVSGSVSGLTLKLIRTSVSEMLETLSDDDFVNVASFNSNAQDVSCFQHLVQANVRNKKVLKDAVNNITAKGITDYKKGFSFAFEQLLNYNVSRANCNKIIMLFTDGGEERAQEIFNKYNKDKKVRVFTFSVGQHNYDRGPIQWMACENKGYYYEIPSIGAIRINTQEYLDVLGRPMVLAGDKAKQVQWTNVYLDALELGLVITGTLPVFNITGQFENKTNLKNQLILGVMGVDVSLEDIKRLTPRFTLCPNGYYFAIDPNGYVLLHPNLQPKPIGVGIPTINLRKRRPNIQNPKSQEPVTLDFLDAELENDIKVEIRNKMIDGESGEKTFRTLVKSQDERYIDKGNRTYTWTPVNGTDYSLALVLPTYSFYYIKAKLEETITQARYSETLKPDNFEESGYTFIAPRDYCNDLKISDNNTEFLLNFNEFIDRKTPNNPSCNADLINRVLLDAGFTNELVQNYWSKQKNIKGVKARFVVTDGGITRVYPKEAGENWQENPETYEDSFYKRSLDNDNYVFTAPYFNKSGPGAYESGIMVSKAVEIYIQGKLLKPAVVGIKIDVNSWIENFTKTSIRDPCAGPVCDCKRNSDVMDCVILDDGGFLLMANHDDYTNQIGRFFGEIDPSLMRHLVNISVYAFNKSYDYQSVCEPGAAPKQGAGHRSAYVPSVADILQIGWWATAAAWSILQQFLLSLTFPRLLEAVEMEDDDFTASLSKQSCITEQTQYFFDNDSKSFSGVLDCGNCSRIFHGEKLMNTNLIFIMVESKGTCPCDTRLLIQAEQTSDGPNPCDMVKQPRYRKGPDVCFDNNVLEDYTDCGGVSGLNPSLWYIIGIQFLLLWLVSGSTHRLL
Chain of human norepinephrine transporter (NET) (P23975 whole entry): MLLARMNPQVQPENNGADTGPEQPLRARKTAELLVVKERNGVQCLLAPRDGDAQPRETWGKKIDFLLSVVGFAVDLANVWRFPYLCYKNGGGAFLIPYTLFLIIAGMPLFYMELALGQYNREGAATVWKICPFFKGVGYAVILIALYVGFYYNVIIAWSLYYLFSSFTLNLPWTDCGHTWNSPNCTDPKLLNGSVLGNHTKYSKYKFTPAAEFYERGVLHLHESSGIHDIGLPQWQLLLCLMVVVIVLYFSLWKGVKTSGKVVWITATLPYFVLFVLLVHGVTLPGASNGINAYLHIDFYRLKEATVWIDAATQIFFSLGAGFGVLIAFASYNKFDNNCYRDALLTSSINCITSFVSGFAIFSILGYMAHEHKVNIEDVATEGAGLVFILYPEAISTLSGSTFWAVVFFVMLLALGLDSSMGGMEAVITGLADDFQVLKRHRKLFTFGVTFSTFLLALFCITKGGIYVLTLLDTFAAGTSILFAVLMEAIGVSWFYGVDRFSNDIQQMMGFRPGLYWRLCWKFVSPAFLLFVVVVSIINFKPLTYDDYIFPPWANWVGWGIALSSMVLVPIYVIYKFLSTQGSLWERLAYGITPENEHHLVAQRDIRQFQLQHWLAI

The Ki is a dissociation constant, usually derived from enzyme kinetics or from competition with a known ligand. As to `CNCC[C@@H](OCc1cccc(N2CCN(C)c3nc(C)ncc3C2=O)c1)c1ccccc1` [Example 206, (R)-2,9-dimethyl-6-(3-((3-(methylamino)-1-phenylpropoxy)methyl)phenyl)-6,7,8,9-tetrahydro-5H-pyrimido[4,5-e][1,4]diazepin-5-one], the inhibitory constant (Ki) in assay [1] was in the range of 100 to 500 nM; in assay [2] (setting [3]) it was 100 to 500 nM; in assay [2] (setting [4]), 500 to 3000 nM.

Take `CNCCC(OCc1cccc(CN2CCN(C)c3nc(SC)ncc3C2=O)c1)c1ccccc1` (stereo not shown) [Example 367, 9-methyl-6-(3-((3-(methylamino)-1-phenylpropoxy)methyl)benzyl)-2-(methylthio)-6,7,8,9-tetrahydro-5H-pyrimido[4,5-e][1,4]diazepin-5-one]: the inhibitory constant (Ki) in assay [1] is 100 to 500 nM; in assay [2] (setting [3]) it was greater than 3000 nM; in assay [2] (setting [4]) it was greater than 3000 nM.

Take `CCNc1ncc2c(n1)N(C)CCN(c1ccc(COC(CNC)c3ccccc3)cc1)C2=O` (stereo not shown) [Example 340, 2-(ethylamino)-9-methyl-6-(4-((2-(methylamino)-1-phenylethoxy)methyl)phenyl)-6,7,8,9-tetrahydro-5H-pyrimido[4,5-e][1,4]diazepin-5-one]: the Ki in assay [1] is less than 100 nM; in assay [2] (setting [3]) it was greater than 3000 nM; in assay [2] (setting [4]), greater than 3000 nM.

On to `CCNc1ncc2c(n1)N(C)CCN(c1cccc(-n3cc(CCN(C)Cc4ccccc4)nn3)c1)C2=O` [Example 247, 6-(3-(4-(2-(benzyl(methyl)amino)ethyl)-1H-1,2,3-triazol-1-yl)phenyl)-2-(ethylamino)-9-methyl-6,7,8,9-tetrahydro-5H-pyrimido[4,5-e][1,4]diazepin-5-one], for which, in assay [2] (setting [4]), the Ki is 500 to 3000 nM.

With `CSc1ncc2c(n1)N(C)CCN(c1cccc(CN(C)C(=O)OC(C)(C)C)c1)C2=O` [Example 26, tert-butyl methyl(3-(9-methyl-2-(methylthio)-5-oxo-5,7,8,9-tetrahydro-6H-pyrimido[4,5-e][1,4]diazepin-6-yl)benzyl) carbamate], the Ki in assay [2] (setting [4]) was greater than 3000 nM.

As to `CNCC(Oc1ccccc1CN1CCN(C)c2nc(SC)ncc2C1=O)c1ccccc1` (stereo not shown) [Example 371, 9-methyl-6-(2-(2-(methylamino)-1-phenylethoxy)benzyl)-2-(methylthio)-6,7,8,9-tetrahydro-5H-pyrimido[4,5-e][1,4]diazepin-5-one], the inhibitory constant (Ki) in assay [2] (setting [4]) is greater than 3000 nM.

As for `CCNc1ncc2c(n1)N(C)CCN(c1cccc(-n3cc(CN4CCC5(CC4)CN(C(C)C)C(=O)[C@@H](C)O5)nn3)c1)C2=O` [Example 284, (R)-9-((1-(3-(2-(ethylamino)-9-methyl-5-oxo-5,7,8,9-tetrahydro-6H-pyrimido[4,5-e] [1,4]diazepin-6-yl)phenyl)-1H-1,2,3-triazol-4-yl)methyl)-4-isopropyl-2-methyl-1-oxa-4,9-diazaspiro[5.5] undecan-3-one], the inhibitory constant (Ki) in assay [2] (setting [4]) lay within 100 to 500 nM.

Turning to `CNc1ncc2c(n1)N(C)CCN(c1cccc(-c3nnc(C)o3)c1)C2=O` [Example 100, 9-methyl-6-(3-(5-methyl-1,3,4-oxadiazol-2-yl)phenyl)-2-(methylamino)-6,7,8,9-tetrahydro-5H-pyrimido[4,5-e][1,4]diazepin-5-one], the Ki in assay [2] (setting [4]) was in the range of 100 to 500 nM.

Take `CNCC(Oc1ccccc1N1CCN(C)c2ncncc2C1=O)c1ccccc1` (stereo not shown) [Example 362, 9-methyl-6-(2-(2-(methylamino)-1-phenylethoxy)phenyl)-6,7,8,9-tetrahydro-5H-pyrimido[4,5-e][1,4]diazepin-5-one]: the Ki in assay [2] (setting [4]) was greater than 3000 nM.

Take `CCNc1ncc2c(n1)N(C)CCN(c1cccc(O[C@@H](CCN(C)C(=O)OC(C)(C)C)c3cccs3)c1)C2=O` [Example 82, tert-butyl (S)-(3-(3-(2-(ethylamino)-9-methyl-5-oxo-5,7,8,9-tetrahydro-6H-pyrimido[4,5-e][1,4]diazepin-6-yl)phenoxy)-3-(thiophen-2-yl)propyl)(methyl) carbamate]: the inhibition constant Ki in assay [2] (setting [4]) was greater than 3000 nM.

As for `CSc1ncc2c(n1)N(C)CCN(c1cccc(CO[C@H](CCN(C)C(=O)OC(C)(C)C)c3ccccc3)c1)C2=O` [Example 10, tert-butyl (R)-methyl(3-((3-(9-methyl-2-(methylthio)-5-oxo-5,7,8,9-tetrahydro-6H-pyrimido[4,5-e][1,4]diazepin-6-yl)benzyl)oxy)-3-phenylpropyl) carbamate], in assay [2] (setting [4]), the Ki is greater than 3000 nM.

Regarding `CSc1ncc2c(n1)N(C)CCN(c1cccc(CCO)c1)C2=O` [Example 36, 6-(3-(2-hydroxyethyl)phenyl)-9-methyl-2-(methylthio)-6,7,8,9-tetrahydro-5H-pyrimido[4,5-e][1,4]diazepin-5-one], the Ki in assay [2] (setting [4]) was greater than 3000 nM.

As to `CCNc1ncc2c(n1)N(C)CCN(c1cccc(OCCN(C)C(=O)OC(C)(C)C)c1)C2=O` [Example 90, tert-butyl (2-(3-(2-(ethylamino)-9-methyl-5-oxo-5,7,8,9-tetrahydro-6H-pyrimido[4,5-e][1,4]diazepin-6-yl)phenoxy)ethyl) (methyl)carbamate], in assay [2] (setting [4]), the Ki was greater than 3000 nM.

Take `CSc1ncc2c(n1)N(C)CCN(c1cccc(OCCCN(Cc3ccccc3)C(=O)OC(C)(C)C)c1)C2=O` [Example 21, tert-butyl benzyl(3-(3-(9-methyl-2-(methylthio)-5-oxo-5,7,8,9-tetrahydro-6H-pyrimido[4,5-e][1,4]diazepin-6-yl)phenoxy)propyl) carbamate]: the Ki in assay [2] (setting [4]) was greater than 3000 nM.

For the compound `CN(CCC(Oc1cccc(N2CCN(C)c3nc(N(C)C)ncc3C2=O)c1)c1cccs1)C(=O)OCC[Si](C)(C)C` (stereo not shown) [Example 133, 2-(trimethylsilyl)ethyl (3-(3-(2-(dimethylamino)-9-methyl-5-oxo-5,7,8,9-tetrahydro-6H-pyrimido[4,5-e][1,4]diazepin-6-yl)phenoxy)-3-(thiophen-2-yl)propyl)(methyl) carbamate], the Ki in assay [2] (setting [4]) is greater than 3000 nM.

As for `CCNc1ncc2c(n1)N(C)CCN(c1cccc(N3CCC(c4ccccc4)(N(C)C)CC3)c1)C2=O` [Example 312, 6-(3-(4-(dimethylamino)-4-phenylpiperidin-1-yl)phenyl)-2-(ethylamino)-9-methyl-6,7,8,9-tetrahydro-5H-pyrimido[4,5-e][1,4]diazepin-5-one], the Ki in assay [2] (setting [4]) fell in the range of 500 to 3000 nM.

In the case of `Cc1ncc2c(n1)N(C)CCN(c1cccc(COC(CCN(C)C(=O)OC(C)(C)C)c3cccs3)c1)C2=O` (stereo not shown) [Example 143, tert-butyl (3-((3-(2,9-dimethyl-5-oxo-5,7,8,9-tetrahydro-6H-pyrimido[4,5-e][1,4]diazepin-6-yl)benzyl)oxy)-3-(thiophen-2-yl)propyl)(methyl) carbamate], the Ki in assay [2] (setting [4]) is greater than 3000 nM.

With `CCNc1ncc2c(n1)N(C)CCN(c1cccc(OC(CCN(CCF)C(=O)OC(C)(C)C)c3cccs3)c1)C2=O` (stereo not shown) [Example 134, tert-butyl (3-(3-(2-(ethylamino)-9-methyl-5-oxo-5,7,8,9-tetrahydro-6H-pyrimido[4,5-e][1,4]diazepin-6-yl)phenoxy)-3-(thiophen-2-yl)propyl)(2-fluoroethyl)carbamate], in assay [2] (setting [4]), the inhibitory constant (Ki) is greater than 3000 nM.

For `CCNc1ncc2c(n1)N(C)CCN(c1cccc(CO[C@@H](CCN(C)C(=O)OC(C)(C)C)c3ccccc3)c1)C2=O` [Example 79, tert-butyl (S)-(3-((3-(2-(ethylamino)-9-methyl-5-oxo-5,7,8,9-tetrahydro-6H-pyrimido[4,5-e][1,4]diazepin-6-yl)benzyl)oxy)-3-phenylpropyl)(methyl) carbamate], in assay [2] (setting [4]), the inhibition constant (Ki) is greater than 3000 nM.

Take `CCNc1ncc2c(n1)N(C)CCN(c1cccc(-c3nnc(CN(C)Cc4ccccc4)o3)c1)C2=O` [Example 255, 6-(3-(5-((benzyl(methyl)amino)methyl)-1,3,4-oxadiazol-2-yl)phenyl)-2-(ethylamino)-9-methyl-6,7,8,9-tetrahydro-5H-pyrimido[4,5-e][1,4]diazepin-5-one]: the inhibitory constant (Ki) in assay [2] (setting [4]) was 100 to 500 nM.

Turning to `Cc1nnc(-c2cccc(N3CCN(C)c4nc(NCC(C)C)ncc4C3=O)c2)o1` [Example 98, 2-(isobutylamino)-9-methyl-6-(3-(5-methyl-1,3,4-oxadiazol-2-yl)phenyl)-6,7,8,9-tetrahydro-5H-pyrimido[4,5-e][1,4]diazepin-5-one], in assay [2] (setting [4]), the Ki is greater than 3000 nM.

In the case of `CCNc1ncc2c(n1)N(C)CCN(c1cccc(-n3cc(CN4CCC(c5ccccc5)(N(C)C)CC4)cn3)c1)C2=O` [Example 294, 6-(3-(4-((4-(dimethylamino)-4-phenylpiperidin-1-yl)methyl)-1H-pyrazol-1-yl)phenyl)-2-(ethylamino)-9-methyl-6,7,8,9-tetrahydro-5H-pyrimido[4,5-e] [1,4]diazepin-5-one], in assay [2] (setting [4]), the Ki lay within 500 to 3000 nM.

Consider `CCNc1ncc2c(n1)N(C)CCN(c1ccccc1COC(CCNC)c1ccccc1)C2=O` (stereo not shown) [Example 337, 2-(ethylamino)-9-methyl-6-(2-((3-(methylamino)-1-phenylpropoxy)methyl)phenyl)-6,7,8,9-tetrahydro-5H-pyrimido[4,5-e][1,4]diazepin-5-one], for which the inhibition constant (Ki) in assay [2] (setting [4]) is greater than 3000 nM.

As to `CNCCC(Oc1cccc(CN2CCN(C)c3ncncc3C2=O)c1)c1ccccc1` (stereo not shown) [Example 429, 9-methyl-6-(3-(3-(methylamino)-1-phenylpropoxy)benzyl)-6,7,8,9-tetrahydro-5H-pyrimido[4,5-e][1,4]diazepin-5-one], the inhibitory constant (Ki) in assay [2] (setting [4]) is greater than 3000 nM.

Regarding `CCNc1ncc2c(n1)N(C)CCN(c1ccccc1OC(CCN(C)C(=O)OC(C)(C)C)c1ccccc1)C2=O` (stereo not shown) [Example 125, tert-butyl (3-(2-(2-(ethylamino)-9-methyl-5-oxo-5,7,8,9-tetrahydro-6H-pyrimido[4,5-e][1,4]diazepin-6-yl)phenoxy)-3-phenylpropyl)(methyl) carbamate], in assay [2] (setting [4]), the Ki is greater than 3000 nM.

The values are drawn from patent US10590140B2, “Tetrahydropyrimidodiazepine and dihydropyridodiazepine compounds for treating pain and pain related conditions” (ESTEVE PHARMACEUTICALS, S.A., priority 2016, dated 2020).
